Assays:
[1] = test system: pAKT (PI3K substrate) and MYC (BET target protein); test: Western Blot analysis in OPM2 cells; type: cell-based, human; conditions: 4 hours
Experimental: OPM2 cells (1.2×10^6) were treated with Cpd 010 or DMSO control at indicated concentrations for 4 hours. Lysates were prepared in ice-cold RIPA lysis buffer (Thermofisher, Life Technologies) and supplemented with Halt protease phosphatase inhibitor cocktail (Thermofisher, Pierce Biotechnology). Protein concentrations of lysate samples were determined by bicinchoninic acid assay (BCA assay) using the Thermo Scientific Pierce BCA Protein Assay Kit (ThermoFisher, Life Technologies) as per manufacturer's instructions. Absorbance for protein concentration estimation was measured using a BMG OPTIMA (Fluostar optima, BMG Labtech). Lysates (25-50 μg) were separated on pre-cast gels (Bis-Tris 4-12% gradient gels) (Bolt, Life Technologies) and transferred onto polyvinylidene difluoride (PVDF) membranes (Immobilon-FL, Merck). The membranes were sequentially incubated with primary antibodies o.n. at 4° C.; mouse anti-β-actin (Sigma-Aldrich, clone AC-74), rabbit anti-cMyc (Cell Signaling, #9402S), rabbit anti-pAKT Ser473 (Cell Signaling, #9271), rabbit anti-pS6 Ser240/244 (Cell Signaling, #2215). Subsequently they were incubated with horse radish pe-roxidase (HRP)-conjugated secondary antibodies for 1-2 h at r.t before the detection of proteins by enzymatic (chemiluminescent) reaction using a ChemiDoc^Tm XRS+ System (Bio-Rad La-boratories Inc.). […]

MYC gene = test: RT-qPCR in OPM2 cells; type: cell-based, human; conditions: 2 h
Experimental: OPM2 cells (1×10^6) were treated with Cpd 010 or DMSO vehicle at indicated concentrations for 2 h. RNA was extracted from cell pellets using the PureLink™ RNA Mini Kit (ThermoFisher Scientific, #121839025) as per the manufacturer's instructions. cDNA was syn thesised with the SuperScript™ III cDNA synthesis kit (ThermoFisher Scientific, #18080093) according to the manufacturer's instructions. Quantitative PCR analysis of samples was per formed on the QuantStudio7 Flex RT-PCR system (ThermoFisher) with SYBR™ Master Mix (ThermoFisher Scientific, #4472903). L32 were used as the human control gene. Primer se quences were: Homo sapiens MYC F: […] R: […], Homo sapiens L32 F: […] R: TTGTGAGCGATCTCGGCAC. Each RT-qPCR am plification was performed in triplicate (technical triplicates) and repeated 2 times (biological replicates).

[2] = test system: MLL-AF9 cells (IBET-151-sensitive and IBET-151-resistant); test: Apoptosis assay in BET-inhibitor-resistant cells (Annexin V/PI); type: cell-based, mouse; conditions: 72 h, Annexin V/PI
Experimental: Mouse AML cells; MLL-AF9 (IBET-151-sensitive and IBET-151-resistant) (5×10^4) were treated with indicated compounds for 72 h. Apoptotic analysis was performed by flow cytometry using Annexin V/propidium iodide (PI) stains. Data were collected on a BD LSR-Fortessa X20 (BD Biosciences) and analysed using FlowJo Software, version 10.0.7 (Tree Star). IC50 were calculated using the GraphPad Prism Software Version 7.0c. Data are representative of biological triplicates.

[3] = In vivo assessment of maximum tolerated dose (MTD)
Excerpt: The Peter MacCallum Cancer Centre Animal Ethics Committee approved all in vivo procedures in this study. B6.SJL-PtprcPepc/BoyJ (B6.CD45.1) mice were purchased from the Walter and Eliza Hall Institute (Melbourne, VIC). For enhanced solubility, Cpd 010 was reconstituted in double dose with 60% Hydroxypropyl-B-cyclodextrin (HPBCD; Cyclodextrin Technologies Development Inc.) and subsequently diluted with ultrafiltered water in 1:1 ratio prior to injection. Vehicle control was 60% HPBCD subsequently diluted 1:1 ratio with ultrafiltered water prior to injection for the final concentration of 30% HPBCD. MTD was carried out in 6-8 week old, non-tumour bearing female mice starting from 25 mg/kg of Cpd 010, 5 day intraperitoneal injection. Six mice received Cpd 010 and two mice received vehicle (30% HPBCD). Full Blood Examination (FBE), serum, spleen weight and morphological examination for toxicity were assessed on day 8 and day 15. In the absence of toxicity further dose escalation was carried out.

Eμ-Myc lymphoma cells = test: In vivo therapeutic assessment, Eμ-Myc lymphoma transplant; design: species or system mouse; conditions: 45 mg/kg IP, 5 days per week, 3 weeks
Experimental: For transplantation of Eμ-Myc lymphomas in vivo, cohorts of 6-8 week old B6.SJL-PtprcPepc/BoyJ (B6.CD45.1) mice were inoculated via tail vein injection with 5×10^5 Eμ-Myc lymphoma cells (C57BL/6 (CD45.2)). Cpd 010 and vehicle controls (30% HPBCD) were prepared as above. Three days after lymphoma inoculation, intraperitoneal (IP) injection of compound 10 (45 mg/kg), or vehicle (30% HPBCD) was administered 5 days per week, for a total of 3-weeks of therapy. Detection of tumour cells on peripheral blood was carried out by flow cytometric analysis using the following antibodies; fixable Viability dye-AmCyan (Zom-bie Aqua™ Fixable Viability Kit, BioLegend), anti-mouse CD19-PE (ThermoFisher Scientific, #12-0193-82), anti-mouse CD45R (B220)-APC (ThermoFisher Scientific, #RA3-6B2), anti-mouse CD45.1-PerCP-Cy™5.5 (ThermoFisher Scientific, #A20), anti-mouse CD45.2-FITC (BioLegend, #104). Data were collected on a BD LSR-Fortessa X20 (BD Biosciences). The data were analysed using FlowJo Software, version 10.0.7 (Tree Star).

BRD4 = BRD4 (Homo sapiens, UniProt O60885); test: Chromatin immunoprecipitation and sequencing analysis in OPM2 cells; type: cell-based; design: endogenous in cells; host or cells: OPM2; conditions: 250 nM, 2 h
Experimental: OPM2 cells (4×10^6) were treated with 250 nM of Cpd 010 or DMSO control for 2 h. Cells were cross-linked, and nuclei were lysed to achieve a mean DNA fragment size of 300-500 bp. Immunoprecipitation was performed using protein A/G magnetic beads for at least 12 h at 4° C. using the following antibodies: anti-BRD4 anti-H3K27Ac, anti-RNA polymerase II. Reverse crosslinking of DNA was performed, and DNA was purified using QIAquick PCR purification kit. The KAPA Hyper Prep Kit was used to generate libraries as per the manufacturer's instruction, which sequenced on the NextSeq (Illumina; 75 bp SE).

CC(=O)N1c2ccc(-c3ccc(CNC(=O)c4cn5cc(-c6cnc(N)nc6)nc(N6CCOCC6)c5n4)cc3)cc2CC[C@@H]1C [Cpd 010, (S)-N-(4-(1-acetyl-2-methyl-1,2,3,4-tetrahydroquinolin-6-yl)benzyl)-6-(2-aminopyrimidin-5-yl)-8-morpholinoimidazo[1,2-a]pyrazine-2-carboxamide]
levels of pAKT and MYC [1]: suppressed levels of both pAKT (PI3K substrate) and MYC (BET target protein) at all test concentrations | MYC mRNA level (MYC gene): significant decrease in MYC mRNA level | apoptosis in I-BET151-resistant MLL-AF9 cells [2]: capable of inducing apoptosis in I-BET151-resistant MLL-AF9 cells, comparable to the I-BETE151-sensitive cells | spleen and body weight ([3]; 50 mg/kg): no changes in spleen and body weight | FBE at day 8 ([3]; 50 mg/kg, day 8): moderate thrombocytopenia | FBE on day 15 ([3]; 50 mg/kg, day 15): recovered to the normal level | MTD at 5 day ([3]; B6.SJL-Ptprc<a>Pepc<b>/BoyJ (B6.CD45.1), mouse, in vivo, ip, non-tumour bearing female mice, 5 day intraperitoneal injection): 50 mg/kg | curative response (Eμ-Myc lymphoma cells): 90% | survival (Eμ-Myc lymphoma cells; p<0.0001): statistically significant survival benefit | BRD4 and RNA Pol II at MYC locus (BRD4): significant reduction in BRD4 and RNA Pol II | displacement of BRD4 from chromatin (BRD4): robust displace ment of BRD4
